Measured values from PMC5988656, “Phase I studies of AZD1208, a proviral integration Moloney virus kinase inhibitor in solid and haematological cancers” (British Journal of Cancer, 2018).

Assay: AML dose-escalation study: pharmacokinetics (plasma, urine)
Format: in vivo, human
Description: The schedules for collection of blood and urine samples for PK analyses in each cohort in both studies are described in Supplementary Table 1. When necessary for clinical response assessment in the AML study, a bone marrow sample for PK analysis was collected at Cycle 1, Day 28.
The concentration of AZD1208 in plasma and urine was determined by Covance, on behalf of Clinical Bioanalysis Alliance at AstraZeneca R&D, using a bioanalytical method. A volume of 0.05 ml of K2EDTA human plasma sample was extracted by liquid–liquid extraction using 0.7 ml of methyl tert-butyl ether. Approximately 100 µl of the supernatant was transferred, evaporated to dryness and reconstituted with 350 µl of 1:1 methanol:water, and a 5 µl injection was made to the high-performance liquid chromatography (HPLC) column. HPLC separations were performed on a Phenomenex LUNA C18 (50 × 2 mm, 5 µm) column using a mobile phase of 0.1% formic acid in water (A) and 0.1% formic acid in acetonitrile (B) at a flow rate of 0.6 ml/min and a column temperature of 40 °C. AZD1208-D5 was used as the internal standard. Detection was performed in a Sciex API4000 mass spectrometer, in a positive electrospray ionisation mode, using multiple reaction monitoring detection (AZD1208: 380.0–>248.1; AZD1208-D5: 385.0–>253.1).

Structure (SMILES): N[C@@H]1CCCN(c2c(/C=C3\SC(=O)NC3=O)cccc2-c2ccccc2)C1 [AZD1208]
- Percentage of patients with a lower accumulation ratio (240 mg): 0%
- Percentage of patients with a lower accumulation ratio (900 mg): 67%
- Patients with significantly lower exposure at steady state compared with the first dose (120–900 mg doses, 4/16 patients): 25%
- Dose proportionality of Cmax and AUC0–24 (Cycle 1, Day 1): dose proportional
- Tmax, median (Cycle 1, Day 1, 120 mg, n=3): 2.42 h
- Tmax, median (Cycle 1, Day 1, 240 mg, n=6): 2.20 h
- Tmax, median (Cycle 1, Day 1, 480 mg, n=6): 3.17 h
- Tmax, median (Cycle 1, Day 1, 700 mg, n=7): 3.05 h
- Tmax, median (Cycle 1, Day 1, 900 mg, n=9): 3.20 h
- Gmean plasma concentration of AZD1208 (± SD) (Cycle 1, Day 1, 0.5 h post-dose, 120 mg, n=3): 85.8 (40.1, 183.9) ng ml
- Gmean plasma concentration of AZD1208 (± SD) (Cycle 1, Day 1, 0.5 h post-dose, 240 mg, n=6): 158.3 (14.4, 1740.3) ng ml
- Gmean plasma concentration of AZD1208 (± SD) (Cycle 1, Day 1, 0.5 h post-dose, 480 mg, n=6): 124.3 (67.6, 228.6) ng ml
- Gmean plasma concentration of AZD1208 (± SD) (Cycle 1, Day 1, 0.5 h post-dose, 700 mg, n=7): 386.8 (93.3, 1603.6) ng ml
- Gmean plasma concentration of AZD1208 (± SD) (Cycle 1, Day 1, 0.5 h post-dose, 900 mg, n=9): 251.5 (90.7, 697.2) ng ml
- Gmean plasma concentration of AZD1208 (± SD) (Cycle 1, Day 1, 1 h post-dose, 120 mg, n=3): 321.3 (187.8, 549.9) ng ml
- Gmean plasma concentration of AZD1208 (± SD) (Cycle 1, Day 1, 1 h post-dose, 240 mg, n=6): 540.4 (133.8, 2182.4) ng ml
- Gmean plasma concentration of AZD1208 (± SD) (Cycle 1, Day 1, 1 h post-dose, 480 mg, n=6): 573.0 (248.3, 1322.0) ng ml
- Gmean plasma concentration of AZD1208 (± SD) (Cycle 1, Day 1, 1 h post-dose, 700 mg, n=7): 883.8 (351.6, 2221.7) ng ml
- Gmean plasma concentration of AZD1208 (± SD) (Cycle 1, Day 1, 1 h post-dose, 900 mg, n=9): 921.4 (373.1, 2275.6) ng ml
- Gmean plasma concentration of AZD1208 (± SD) (Cycle 1, Day 1, 1.5 h post-dose, 120 mg, n=3): 774.5 (422.1, 1421.3) ng ml
- Gmean plasma concentration of AZD1208 (± SD) (Cycle 1, Day 1, 1.5 h post-dose, 240 mg, n=6): 1098.6 (620.9, 1943.7) ng ml
- Gmean plasma concentration of AZD1208 (± SD) (Cycle 1, Day 1, 1.5 h post-dose, 480 mg, n=6): 1243.2 (485.9, 3181.1) ng ml
- Gmean plasma concentration of AZD1208 (± SD) (Cycle 1, Day 1, 1.5 h post-dose, 700 mg, n=7): 1849.6 (783.5, 4366.4) ng ml
- Gmean plasma concentration of AZD1208 (± SD) (Cycle 1, Day 1, 1.5 h post-dose, 900 mg, n=9): 2106.0 (860.5, 5154.2) ng ml
- Gmean plasma concentration of AZD1208 (± SD) (Cycle 1, Day 1, 2 h post-dose, 120 mg, n=3): 779.9 (508.9, 1195.3) ng ml
- Gmean plasma concentration of AZD1208 (± SD) (Cycle 1, Day 1, 2 h post-dose, 240 mg, n=6): 1388.6 (1074.3, 1744.9) ng ml
- Gmean plasma concentration of AZD1208 (± SD) (Cycle 1, Day 1, 2 h post-dose, 480 mg, n=6): 1852.3 (781.9, 4387.6) ng ml
- Gmean plasma concentration of AZD1208 (± SD) (Cycle 1, Day 1, 2 h post-dose, 700 mg, n=7): 2640.6 (1438.6, 4847.0) ng ml
- Gmean plasma concentration of AZD1208 (± SD) (Cycle 1, Day 1, 2 h post-dose, 900 mg, n=9): 3553.2 (2352.6, 5366.6) ng ml
- Gmean plasma concentration of AZD1208 (± SD) (Cycle 1, Day 1, 3 h post-dose, 120 mg, n=3): 715.6 (415.5, 1232.6) ng ml
- Gmean plasma concentration of AZD1208 (± SD) (Cycle 1, Day 1, 3 h post-dose, 240 mg, n=6): 1299.5 (967.1, 1746.2) ng ml
- Gmean plasma concentration of AZD1208 (± SD) (Cycle 1, Day 1, 3 h post-dose, 480 mg, n=6): 2865.4 (1884.8, 4356.2) ng ml
- Gmean plasma concentration of AZD1208 (± SD) (Cycle 1, Day 1, 3 h post-dose, 700 mg, n=7): 3112.3 (1814.6, 5337.9) ng ml
- Gmean plasma concentration of AZD1208 (± SD) (Cycle 1, Day 1, 3 h post-dose, 900 mg, n=9): 3574.9 (1521.4, 8400.4) ng ml
- Gmean plasma concentration of AZD1208 (± SD) (Cycle 1, Day 1, 6 h post-dose, 120 mg, n=3): 546.6 (356.7, 837.6) ng ml
- Gmean plasma concentration of AZD1208 (± SD) (Cycle 1, Day 1, 6 h post-dose, 240 mg, n=6): 1004.2 (822.5, 1226.0) ng ml
- Gmean plasma concentration of AZD1208 (± SD) (Cycle 1, Day 1, 6 h post-dose, 480 mg, n=6): 2642.0 (1774.2, 3934.4) ng ml
- Gmean plasma concentration of AZD1208 (± SD) (Cycle 1, Day 1, 6 h post-dose, 700 mg, n=7): 2846.5 (2115.2, 3830.6) ng ml
- Gmean plasma concentration of AZD1208 (± SD) (Cycle 1, Day 1, 6 h post-dose, 900 mg, n=9): 4252.0 (2883.8, 6269.4) ng ml
- Gmean plasma concentration of AZD1208 (± SD) (Cycle 1, Day 1, 8 h post-dose, 120 mg, n=3): 481.6 (308.4, 752.3) ng ml
- Gmean plasma concentration of AZD1208 (± SD) (Cycle 1, Day 1, 8 h post-dose, 240 mg, n=6): 950.3 (825.3, 1094.2) ng ml
- Gmean plasma concentration of AZD1208 (± SD) (Cycle 1, Day 1, 8 h post-dose, 480 mg, n=6): 2249.0 (1520.2, 3327.1) ng ml
- Gmean plasma concentration of AZD1208 (± SD) (Cycle 1, Day 1, 8 h post-dose, 700 mg, n=7): 3284.7 (2253.3, 4788.2) ng ml
- Gmean plasma concentration of AZD1208 (± SD) (Cycle 1, Day 1, 8 h post-dose, 900 mg, n=9): 3882.9 (2438.1, 6184.0) ng ml
- Gmean plasma concentration of AZD1208 (± SD) (Cycle 1, Day 1, 24 h post-dose, 120 mg, n=3): 199.0 (75.6, 524.0) ng ml
- Gmean plasma concentration of AZD1208 (± SD) (Cycle 1, Day 1, 24 h post-dose, 240 mg, n=6): 844.5 (598.4, 1191.8) ng ml
- Gmean plasma concentration of AZD1208 (± SD) (Cycle 1, Day 1, 24 h post-dose, 480 mg, n=6): 2169.6 (1161.6, 4052.3) ng ml
- Gmean plasma concentration of AZD1208 (± SD) (Cycle 1, Day 1, 24 h post-dose, 900 mg, n=9): 3045.2 (1664.2, 5572.3) ng ml
- Gmean plasma concentration of AZD1208 (± SD) (Cycle 1, Day 1, pre-dose, 240 mg, n=6): 76.9 (NC) ng ml
